One may read the IC50 as the midpoint of a concentration-inhibition curve. Higher therefore signals a need for much substance.

SMILES strings stand for the structures. Counter-ions that a name gives are not always drawn.

This assay deals with T1, NHE-3 (Homo sapiens, UniProt P48764).
T1 sequence (P48764 26-834): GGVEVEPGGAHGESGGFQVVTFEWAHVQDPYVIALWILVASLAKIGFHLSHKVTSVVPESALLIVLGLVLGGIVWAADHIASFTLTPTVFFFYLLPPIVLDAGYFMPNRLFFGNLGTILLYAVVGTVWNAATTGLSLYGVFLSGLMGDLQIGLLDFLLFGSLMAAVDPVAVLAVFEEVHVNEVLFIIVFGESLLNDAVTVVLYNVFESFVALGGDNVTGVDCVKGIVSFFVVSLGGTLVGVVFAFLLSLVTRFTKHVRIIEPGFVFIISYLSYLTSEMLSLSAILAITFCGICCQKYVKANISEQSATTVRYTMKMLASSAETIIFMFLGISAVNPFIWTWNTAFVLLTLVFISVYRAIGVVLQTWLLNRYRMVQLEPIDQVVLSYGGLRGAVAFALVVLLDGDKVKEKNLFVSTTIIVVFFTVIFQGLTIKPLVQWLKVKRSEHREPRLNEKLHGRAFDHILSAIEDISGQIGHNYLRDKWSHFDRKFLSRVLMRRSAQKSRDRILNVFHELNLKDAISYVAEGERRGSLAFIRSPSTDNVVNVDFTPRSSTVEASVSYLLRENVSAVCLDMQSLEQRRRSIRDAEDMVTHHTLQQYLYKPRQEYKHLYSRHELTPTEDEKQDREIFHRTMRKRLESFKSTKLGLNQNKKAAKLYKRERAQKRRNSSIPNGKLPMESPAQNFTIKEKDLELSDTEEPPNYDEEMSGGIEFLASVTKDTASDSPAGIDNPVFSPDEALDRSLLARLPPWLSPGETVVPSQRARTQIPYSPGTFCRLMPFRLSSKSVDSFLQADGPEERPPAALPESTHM
Briefly: Determination of the NHE-inhibitory effect (recovery of intracellular pH after acidification, BCECF fluorescence). To be noted: pH recovery recorded for three minutes with NHE-3; BCECF-loaded cells. In kind it is cell-based. How it is done: Description of Assay: Determination of the NHE-Inhibitory Effect In this assay, the recovery of the intracellular pH (pHj) after an acidification which occurs even under bicarbonate-free conditions with functional NHE was determined. To this end, the pHj was determined using the pH-sensitive fluorescent dye BCECF (Calbiochem, the precursor BCECF-AM was employed). The cells were initially loaded with BCECF. The BCECF fluorescence was determined in a ratio fluorescence spectrometer (Photon Technology International, South Brunswick, N.J., USA) with excitation wavelengths of 505 and 440 nm and an emission wavelength of 535 nm and converted into the pHj using calibration plots. The cells had been incubated in NH4Cl buffer (pH 7.4) for the BCECF loading (NH4Cl buffer: 115 mM NaCl, 20 mM NH4Cl, 5 mM KCl, 1 mM CaCl2, 1 mM MgSO4, 20 mM Hepes, 5 mM glucose, 1 mg/ml BSA; a pH of 7.4 was adjusted with 1 M NaOH). The intracellular acidification was induced by adding 975 μl of an NH4Cl-free buffer (see below) to 25 μl aliquots of the cells incubated in NH4Cl buffer. The subsequent rate of pH recovery was recorded for two minutes with NHE1, five minutes with NHE2 and three minutes with NHE-3. To calculate the inhibitory power of the tested substances, the cells were initially investigated in buffers with which there was complete or absolutely no pH recovery. For complete pH recovery (100%), the cells were incubated in Na^+-containing buffer (133.8 mM NaCl, 4.7 mM KCl, 1.25 mM CaCl2, 1.25 mM MgCl2, 0.97 mM Na2HPO4, 0.23 mM NaH2PO4, 5 mM Hepes, 5 mM glucose, a pH of 7.0 was adjusted with 1 M NaOH). To determine the 0% value, the cells were incubated in an Na^+-free buffer (133.8 mM choline chloride, 4.7 mM KCl, 1.25 mM CaCl2, 1.25 mM MgCl2, 0.97 mM K2HPO4, 0.23 mM KH2PO4, 5 mM Hepes, 5 mM glucose, a pH of 7.0 was adjusted with 1 M NaOH). The substances to be tested were made up in the Na^+-containing buffer. The recovery of the intracellular pH at each tested concentration of a substance was expressed as a percentage of the maximum recovery. The IC50 of the respective substance for the individual NHE subtypes was calculated from the percentages of pH recovery using the Sigma Plot program.
In the case of `NC1=Nc2ccc(Cl)cc2C(c2ccc(N)cc2)C1` (stereo not shown) [Example 1, 2-Amino-4-(4-aminophenyl)-6-chloro-3,4-dihydroquinoline hydrochloride], inhibition was half-maximal at 4.39 µM (IC50). This lies in the single-digit micromolar range.

As for `CCN(CC)C1=Nc2ccc(Cl)cc2C(c2ccc(N)cc2)C1` (stereo not shown) [Example 3, 4-(4-Aminophenyl)-6-chloro-2-diethylamino-3,4-dihydroquinoline hydrochloride], the IC50 amounted to 9.19 µM. This IC50 is about 2.1-fold higher than that of the compound before.

For the compound `CCN(CC)C1=Nc2ccc(Cl)cc2C(c2ccc(NC(=O)NCCN(C)C)cc2)C1` (stereo not shown) [Example 4, N-(2-Dimethylaminoethyl)-N′-4-[(6-chloro-3,4-dihydro-2-diethyl-aminoquinolin-4-yl)phenyl]urea hydrochloride], half-maximal inhibition (IC50) was put at 13.8 µM.

In turn, `CCNC1=Nc2ccc(Cl)cc2C(c2ccc(N)cc2)C1` (stereo not shown) [Example 2, 4-(4-Aminophenyl)-6-chloro-2-ethylamino-3,4-dihydroquinoline hydrochloride] gave an IC50 of 10.9 µM.

These data come from patent US8106204B2, “Substituted 2-amino-4-phenyldihydroquinolines, processes for their preparation, pharmaceutical compositions and methods for their use” (Sanofi-Aventis, priority 2006, dated 2012).
